Experimental data as given in PubChem BioAssay AID1996.
≈ marks a conversion by molar mass, not a printed value.

Settings: buffer; pH 7.4; 200.0 µM

| Compound | solubility kinetic [µg/mL] |
| --- | --- |
| COc1ccc(C(=O)Nc2ccc3c(c2)OCCO3)cc1[N+](=O)[O-] | < 0.4 |
| COc1ccccc1NC(=O)c1cc(Cl)nnc1Cl | > 44.7 |
| CC(C)(C)c1ccc(C(=O)Nc2cccnc2)cc1 | 28 (≈ 110 µM) |
| Cc1c(Cl)cccc1NC(=O)C1CC2CCC1C2 (centres undefined) | 1.5 (≈ 5.69 µM) |
| CCN(C(=O)COC(=O)/C=C/c1ccco1)C1CCCCC1 | 39.1 (≈ 128 µM) |
| CC1CN(CC(O)COC2CCC(C(C)(C)C)CC2)CC(C)O1.Cl (centres undefined) | 48.8 |
| COc1ccc(NS(=O)(=O)c2ccc(C(=O)N3CCCCCC3)cc2)cc1 | > 58.3 |
| CN(C)CCCNC(=S)Nc1ccc(Br)cc1 | > 47.4 |
| Cc1cccc(Nc2nc(-c3ccc(O)c(O)c3)cs2)n1 | 4.5 (≈ 15 µM) |
| CCN(CC)c1ccc(NC(=O)c2ccc(S(=O)(=O)N3CCOCC3)cc2)cc1 | 4.7 (≈ 11.3 µM) |
| O=[N+]([O-])c1cccc(-c2ccc(CN3CCCCC3)o2)c1 | 30.5 (≈ 107 µM) |
| O=C(Nc1nccs1)c1cccc(NC(=O)C(F)(F)F)c1 | 38.8 (≈ 123 µM) |
| COc1ccc(NC(=O)Nc2cccs2)cn1 | > 37.4 |
| Cc1cc(=O)n(C)c2ccc(S(=O)(=O)N3CCOCC3)cc12 | 46.5 (≈ 144 µM) |
| COc1ccc(NC(=O)c2cc3ccccc3oc2=O)c(OC)c1 | < 0.7 |
| Cc1onc(-c2ccccc2)c1C(=O)N1CCCN2C(=O)c3ccccc3C21 (centres undefined) | 48.7 (≈ 130 µM) |
| Cc1ccc(C)c(NC(=O)C(=O)NCCc2c[nH]c3ccccc23)c1 | 0.7 (≈ 2.09 µM) |
| COc1ccccc1C(=O)COC(=O)COc1ccc(C#N)cc1 | > 48.8 |
| CN(C)c1ccc(CNCc2cccnc2)cc1 | 33.3 (≈ 138 µM) |
| CCCCn1c(N)c(N(CCOC)C(=O)CSc2nnc(-c3ccco3)n2CC)c(=O)[nH]c1=O | > 73.7 |
| OC(CNCCc1c[nH]c2ccccc12)C(F)(F)F (centres undefined) | > 40.8 |

| Compound | solubility kinetic [µg/mL] |
| --- | --- |
| O=C(COc1ccccc1Br)N1CCNC1=O | 42.2 (≈ 141 µM) |
| CCOc1ccc2[nH]c3c(c2c1)CNCC3 | 25.9 (≈ 120 µM) |
| O=c1[nH]c(Cc2ccccc2)nc2ccccc12 | 2.5 (≈ 10.6 µM) |
| COc1ccc(/C=C/C(=O)O)cc1S(=O)(=O)N1CCC(Cc2ccccc2)CC1 | 61.6 (≈ 148 µM) |
| S=C(c1ccc2c(c1)OCO2)N1CCOCC1 | > 37.7 |
| CCCN=C1CC(C)(C)CC(=O)/C1=C(/O)CCC | 37.5 (≈ 149 µM) |
| O=c1[nH]cnc2ccc([N+](=O)[O-])cc12 | > 28.7 |
| O=C(Nc1cccc2ncccc12)c1cc([N+](=O)[O-])ccc1Cl | 3.2 (≈ 9.76 µM) |
| CCOc1ccccc1C(=O)N[C@H](C(=O)OCc1csc(CC(=O)Nc2ccc(C)cc2)n1)C(C)C | 6.9 (≈ 13.5 µM) |
| COc1ccccc1C(=O)Nc1ccc2c(C)cc(=O)oc2c1 | 1.3 (≈ 4.2 µM) |
| Cc1noc(C)c1S(=O)(=O)N(C)Cc1ccccc1 | 38.5 (≈ 137 µM) |
| COc1cc2c(cc1OC)C(C)N(C(=O)Nc1ccccc1)CC2 (centres undefined) | 39 (≈ 119 µM) |
| CC(C)(C)NCC(O)COc1cccc2c1C[C@H](O)[C@H](O)C2 (some centres undefined) | > 46.4 |
| Cc1cccc(C)c1C(=NCCN(C)C)c1ccccc1.Cl | > 53 |
| O=C(Nc1cc2c3c(c1)CC(=O)N3CCC2)C1CC1 | > 38.4 |
| CC1=C(C(=O)c2ccccc2)C(c2ccc(O)cc2)NC(=S)N1 (centres undefined) | 21.8 (≈ 67.2 µM) |
| O=C1CN(C(=S)Nc2ccccc2Cl)CCN1 | > 40.5 |
| O=C(CSc1nc2ncc(Cl)cc2[nH]1)c1ccc2c(c1)OCO2 | 1.8 (≈ 5.18 µM) |
| C=CCNc1nc(Cl)nc(NC2CCCCC2)n1 | 6.9 (≈ 25.8 µM) |
| O=c1nc(-c2ccccc2)c2cc(SC(F)F)ccc2[nH]1 | 1.4 (≈ 4.6 µM) |
| O=C1c2ccccc2C(=O)N1c1cccc2ccccc12 | 13.7 (≈ 50.1 µM) |

| Compound | solubility kinetic [µg/mL] |
| --- | --- |
| NS(=O)(=O)c1cccc(NC(=O)CCCC2CCCCC2)c1 | 8.8 (≈ 27.1 µM) |
| C/C(=N\NC(=O)c1ccc(Cl)cc1)c1cccnc1 | > 41.1 |
| Cc1cccc(N=C2NC(=O)/C(=C/c3cccn3C)S2)c1C | 8.2 (≈ 26.3 µM) |
| Cc1cc(/C=C(\C#N)C(=O)O)c(C)n1CC1CCCO1 (centres undefined) | > 41.1 |
| CCOC(=O)N1CCN(C(=O)COC(=O)c2ccc(O)cc2O)CC1 | > 52.9 |
| Cc1cc(C)cc(OC(=O)c2cccnc2)c1 | 30.6 (≈ 135 µM) |
| CCOC(=O)Cn1c2ccccc2c2nc(C)sc21 | > 41.2 |
| CN(CCC#N)S(=O)(=O)c1cc2c3c(c1)CCN3C(=O)CC2 | > 47.9 |
| Cc1cc(C)c2c(n1)sc1c(N3CCN(C)CC3)ncnc12 | 39.6 (≈ 126 µM) |
| COC(=O)c1sc(-c2ccccc2)cc1NC(=O)C1CC1 | 0.7 (≈ 2.32 µM) |
| O=C(O)/C=C/C(=O)Nc1ccc(S(=O)(=O)Nc2nccs2)cc1 | > 53 |
| Cn1c(=O)c2ccccc2n(CC(=O)Nc2ccc3c(c2)OCCO3)c1=O | 4.6 (≈ 12.5 µM) |
| CN(CC(O)Cn1c2ccccc2c2ccccc21)S(C)(=O)=O (centres undefined) | > 49.9 |
| Nc1ncnc(Nc2cccc(F)c2)n1 | 30.6 (≈ 149 µM) |
| CCOC(=O)c1nc(-c2ccc(OC)c(OC)c2)no1 | 40.8 (≈ 147 µM) |
| CC1(C)Cc2c(C#N)c(SCCO)nc(N3CCOCC3)c2CO1 | > 52.4 |
| CCOC(=O)c1ccc(NC(=S)Nc2cc(C)cc(C)n2)cc1 | < 0.2 |
| CN(C)CCCNc1nc(-c2ccc(Cl)cc2)nc2ccccc12 | 41.7 (≈ 122 µM) |
| CC(=O)c1cccc(NC(=O)c2cc(C)nn2-c2ccccc2)c1 | > 47.9 |
| Nc1cc(=O)[nH]c(SCC(=O)Nc2ccc3c(c2)CCC3)n1 | 7.8 (≈ 24.7 µM) |
| O=C(CNC(=O)c1ccccc1)OCC(=O)c1c[nH]c2ccccc12 | 18.6 (≈ 55.3 µM) |

| Compound | solubility kinetic [µg/mL] |
| --- | --- |
| Cc1cc(C)cc(OCC(=O)Nc2cnn(CCCC(=O)O)c2)c1 | > 49.7 |
| COCCCN1CN=C(Nc2nc3ccccc3o2)NC1 | > 43.4 |
| CNS(=O)(=O)c1cc(Nc2ncnc3sccc23)ccc1C | 2.5 (≈ 7.48 µM) |
| O=C(CSc1nccc(-c2cccs2)n1)Nc1ccc(Cl)cc1 | 1.4 (≈ 3.87 µM) |
| CCNC(=S)Nc1sc2c(c1C#N)CCC(C)C2 (centres undefined) | 1.1 (≈ 3.94 µM) |
| O=C(Cn1c(NCCO)nc2ccccc21)Nc1cccc(S(=O)(=O)N2CCCC2)c1 | 63.1 (≈ 142 µM) |
| Cc1cc2c(cc1C)C(c1cccc(F)c1)CC(=O)N2 (centres undefined) | < 0.6 |
| COc1ccccc1N1C(=O)c2cccc3cccc(c23)C1=O | < 0.6 |
| O=C(NC(=S)N1CCCC(O)C1)c1ccco1 (centres undefined) | > 38.1 |
| CC1C(=O)Nc2ccccc2N1C(=O)c1ccc(F)cc1 (centres undefined) | > 42.6 |
| CN1CCN(S(=O)(=O)c2cc([N+](=O)[O-])ccc2Cl)CC1 | > 48 |
| Cc1ccc(NC(=O)CNC(=O)c2ccco2)nc1 | > 38.9 |
| O=C(O)c1ccc(/C=C/c2nc3ccccc3c(=O)[nH]2)cc1 | > 43.8 |
| COc1ccccc1C(=O)NCCC(=O)Nc1cccnc1 | > 44.9 |
| CCCNC(=O)CN(C)CC(=O)Nc1ccccc1C#N | > 43.3 |
| CCCCc1c(O)nc(SCC(=O)N2CCCCC2)[nH]c1=O | > 48.8 |
| O=C(CCC(=O)Nc1cccc(C(F)(F)F)c1)NCC1CCCO1 (centres undefined) | > 51.6 |
| O=S(=O)(Nc1ccncc1)c1cc(Cl)c(Cl)cc1Cl | 1.6 (≈ 4.74 µM) |
| Cc1ccc(CNS(=O)(=O)c2c(C)[nH]c(=O)[nH]c2=O)cc1 | > 46.4 |
| Cc1csc(NC(=O)CSc2nccn2C)n1 | > 40.3 |

Other lines, results leading:

| solubility kinetic [µg/mL] | Compound |
| --- | --- |
| 21 (≈ 70.1 µM) | Cc1cc(C)c2cc(C(=O)N(C)C3CCN(C)CC3)[nH]c2c1 |
| 33.1 (≈ 90.1 µM) | COc1cc(/C=C/C(=O)OCC(=O)N2CCCc3ccccc32)ccc1O |
| > 45.8 | Cc1ccc(C(=O)NC(C)c2ccc(-n3ccnc3)cc2)cc1 (centres undefined) |
| > 51.5 | O=C(CN1C(=O)NC2(CCCCCC2)C1=O)NCCc1ccccc1 |
| 55.4 (≈ 146 µM) | CS(=O)(=O)NCC(c1cccnc1)N1CCN(c2ccccc2F)CC1 (centres undefined) |
| 0.7 (≈ 1.45 µM) | CCN(c1ccccc1)S(=O)(=O)c1ccc(OC)c(NC(=O)c2cc(F)c(F)c(F)c2F)c1 |
| 41.6 (≈ 144 µM) | O=C(Nc1ccncc1)c1c(F)c(F)c(F)c(F)c1F |
| 1.1 (≈ 4.15 µM) | Cc1ccc2c(c1)c1c3n2CCN(CC#N)C3CCC1 (centres undefined) |
| 3.6 (≈ 6.67 µM) | COc1ccccc1NS(=O)(=O)c1cc(NC(=O)c2cc(F)c(F)c(F)c2F)ccc1N1CCOCC1 |
| 7.2 (≈ 15.5 µM) | COc1ccc(S(=O)(=O)N2CCc3ccccc32)cc1C(=O)Nc1ccc(NC(C)=O)cc1 |
| 5.7 (≈ 15.2 µM) | CC1C(c2ccccc2)N(C)C(c2ccccc2)CC1(O)c1ccc(F)cc1 (centres undefined) |
| 6.4 (≈ 23 µM) | CC(C)c1nc2sc3c(c2c(=O)[nH]1)CC(C)(C)OC3 |
| 33.6 (≈ 124 µM) | CC(CCc1ccccc1)NC(=O)c1ccc(F)cc1 (centres undefined) |
| 42.9 (≈ 118 µM) | O=C1Cc2cc(NS(=O)(=O)c3ccc(Cl)cc3)cc3c2N1CCC3 |
| 36.1 (≈ 143 µM) | OCc1nc2ccccc2n1CCc1ccccc1 |
| 38.9 (≈ 123 µM) | S=C1SCN(Cc2cccnc2)CN1Cc1ccccc1 |
| 13.8 (≈ 52.2 µM) | N#C/C(=C\c1ccncc1)c1ccc(NC(N)=O)cc1 |
| > 37.5 | CC(=O)Nc1c(F)cc(Br)cc1F |

| solubility kinetic [µg/mL] | Compound |
| --- | --- |
| > 52.7 | CN(C)C(CNC(=O)CSC(=S)N1CCCC1)c1ccccc1 (centres undefined) |
| 17.7 (≈ 59.5 µM) | Cc1cc(C)c(C(=O)C(C)OC(=O)c2ccccn2)cc1C (centres undefined) |
| > 44.9 | CN(Cc1ccccc1)C(=O)COC(=O)/C=C/c1ccco1 |
| 0.5 (≈ 1.36 µM) | Cc1ccc(CNC(=O)c2cccnc2Sc2cccc(Cl)c2)cc1 |
| 43.5 (≈ 113 µM) | COc1ccc(CNC(=O)COc2cc(O)c3c(c2)OC(C)(C)CC3=O)cc1 |
| 35.1 (≈ 148 µM) | O=C1Cc2ccccc2C(=O)N1c1ccccc1 |
| > 42.7 | CCOC(=O)c1c(N)sc(C(=O)N(CC)CC)c1C |
| 44.5 (≈ 132 µM) | COc1ccc2c(c1)-c1nc(/N=C/c3ccccc3O)sc1CC2 |
| 1.2 (≈ 3.5 µM) | CC(=O)NC(c1ccc2ccccc2c1)c1ccc2cccnc2c1O (centres undefined) |
| 9.9 (≈ 35.1 µM) | Cn1cccc1C(=O)OCC(=O)c1c[nH]c2ccccc12 |
| > 54.4 | COc1ccc2nc(C)cc(Nc3ccc(N4CCN(C)CC4)cc3)c2c1 |
| > 28.2 | O=C(C=C1NCCN1)c1ccccc1 |
| 12.9 (≈ 51.1 µM) | Cc1ccnc(NC(=O)c2cc3ccccc3o2)c1 |
| > 52 | Cc1ccc(OCCNC(=O)CNC(=O)c2ccccc2Cl)cc1 |
| > 48.5 | O=C1OCC2=C1C(c1ccccc1)CC(=O)N2c1ccc(F)cc1 (centres undefined) |
| 42.4 (≈ 128 µM) | CS(=O)(=O)Nc1ccc2c(c1)OCC(=O)N2Cc1ccccc1 |
| > 36.9 | Cn1cc(C(=O)NCCO)c(=O)c2ccccc21 |
| 19.5 (≈ 80.5 µM) | Cc1ccc(-c2csc3nc[nH]c(=O)c23)cc1 |
